Measured values as given in the supplement of paper PMC10307832.

How the values were obtained:
Assay in all cases: relative viability (nuclei count vs DMSO), 5 days (fraction); higher = more cells survive
Palbociclib + Bortezomib = compound: CC(=O)c1c(C)c2cnc(Nc3ccc(N4CCNCC4)cn3)nc2n(C2CCCC2)c1=O [Palbociclib] + CC(C)C[C@H](NC(=O)[C@H](Cc1ccccc1)NC(=O)c1cnccn1)B(O)O [Bortezomib] (partner 0.002 µM)
In short: (§1)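 Lung cancer cell lines in 1536-well plates were dosed by pin tool the day after seeding, either with one drug alone or with a fixed anchor-drug dose plus five library-drug doses (not always all listed) in √10 steps. After 5 days, cells were fixed and their nuclei stained in one step (final 0.05% Triton X-100, 1% formaldehyde, 1 ug/ml Hoechst), then counted on 4× images. Relative viability is the nuclei count in treated wells divided by that in vehicle wells. Values are medians of duplicate plates.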

Palbociclib + Navitoclax = compound: CC(=O)c1c(C)c2cnc(Nc3ccc(N4CCNCC4)cn3)nc2n(C2CCCC2)c1=O [Palbociclib] + CC1(C)CCC(c2ccc(Cl)cc2)=C(CN2CCN(c3ccc(C(=O)NS(=O)(=O)c4ccc(N[C@H](CCN5CCOCC5)CSc5ccccc5)c(S(=O)(=O)C(F)(F)F)c4)cc3)CC2)C1 [Navitoclax] (partner 0.5 µM)
In short: as §1

Palbociclib + Linsitinib = compound: CC(=O)c1c(C)c2cnc(Nc3ccc(N4CCNCC4)cn3)nc2n(C2CCCC2)c1=O [Palbociclib] + C[C@]1(O)C[C@@H](c2nc(-c3ccc4ccc(-c5ccccc5)nc4c3)c3c(N)nccn32)C1 [Linsitinib] (partner 1 µM)
In short: as §1

Palbociclib + AZD7762 = compound: CC(=O)c1c(C)c2cnc(Nc3ccc(N4CCNCC4)cn3)nc2n(C2CCCC2)c1=O [Palbociclib] + NC(=O)Nc1cc(-c2cccc(F)c2)sc1C(=O)N[C@H]1CCCNC1 [AZD7762] (partner 0.2 µM)
In short: as §1

| Cell Line | relative viability (Palbociclib + Bortezomib; first compound 0.01 µM) | relative viability (Palbociclib + Bortezomib; first compound 0.03162 µM) | relative viability (Palbociclib + Bortezomib; first compound 0.1 µM) | relative viability (Palbociclib + Bortezomib; first compound 0.3162 µM) | relative viability (Palbociclib + Bortezomib; first compound 1 µM) | relative viability (Palbociclib + Navitoclax; first compound 0.01 µM) | relative viability (Palbociclib + Navitoclax; first compound 0.03162 µM) | relative viability (Palbociclib + Navitoclax; first compound 0.1 µM) | relative viability (Palbociclib + Navitoclax; first compound 0.3162 µM) | relative viability (Palbociclib + Navitoclax; first compound 1 µM) | relative viability (Palbociclib + Linsitinib; first compound 0.01 µM) | relative viability (Palbociclib + Linsitinib; first compound 0.03162 µM) | relative viability (Palbociclib + Linsitinib; first compound 0.1 µM) | relative viability (Palbociclib + Linsitinib; first compound 0.3162 µM) | relative viability (Palbociclib + Linsitinib; first compound 1 µM) | relative viability (Palbociclib + AZD7762; first compound 0.01 µM) | relative viability (Palbociclib + AZD7762; first compound 0.03162 µM) | relative viability (Palbociclib + AZD7762; first compound 0.1 µM) | relative viability (Palbociclib + AZD7762; first compound 0.3162 µM) | relative viability (Palbociclib + AZD7762; first compound 1 µM) |
| --- | --- | --- | --- | --- | --- | --- | --- | --- | --- | --- | --- | --- | --- | --- | --- | --- | --- | --- | --- | --- |
| NCI-H1437 | 0.525 | 0.533 | 0.442 | 0.408 | 0.318 | 1.1 | 1.04 | 0.933 | 0.923 | 0.563 | 1.02 | 1.02 | 0.872 | 0.847 | 0.408 | 1.15 | 1.09 | 1.03 | 1.09 | 0.73 |
| NCI-H727 | 0.963 | 0.649 | 0.491 | 0.465 | 0.469 | 0.429 | 0.406 | 0.324 | 0.266 | 0.326 | 0.226 | 0.285 | 0.283 | 0.289 | 0.282 | 0.593 | 0.511 | 0.584 | 0.447 | 0.461 |
| HOP-62 | 0.418 | – | 0.741 | 0.612 | 0.57 | 0.959 | 0.68 | 0.893 | 0.86 | 0.625 | 0.995 | – | 1.01 | 0.908 | 0.692 | 0.334 | – | 0.389 | 0.501 | 0.355 |
| HCC-366 | 0.953 | – | 0.965 | 0.975 | 0.616 | 1.05 | – | 0.996 | 0.877 | 0.803 | 0.482 | – | 0.506 | 0.494 | 0.344 | 0.198 | – | 0.43 | 0.232 | 0.11 |
| NCI-H1666 | 0.924 | 0.787 | 0.709 | 0.599 | 0.429 | 0.929 | 0.782 | 0.792 | 0.544 | 0.448 | 0.868 | 0.751 | 0.634 | 0.619 | 0.37 | 0.881 | 0.58 | 0.842 | 0.74 | 0.684 |
| NCI-H460 | 1.11 | 0.937 | 0.909 | 0.745 | 0.172 | 1.08 | 0.944 | 0.912 | 0.662 | 0.175 | 0.903 | 0.529 | 0.483 | 0.288 | 0.117 | 0.591 | 0.512 | 0.557 | 0.484 | 0.178 |
| LU99A | 0.976 | 0.935 | 1 | 1.09 | 0.67 | 0.789 | 0.677 | 0.759 | 0.601 | 0.522 | 0.587 | 0.46 | 0.454 | 0.355 | 0.327 | 0.405 | – | 0.277 | 0.34 | 0.27 |
| NCI-H1703 | 0.266 | 0.23 | 0.197 | 0.226 | 0.188 | 1.18 | 0.756 | 0.753 | 0.394 | 0.28 | 1.11 | 0.64 | 0.673 | 0.617 | 0.323 | 0.12 | – | 0.109 | 0.0999 | 0.14 |
| RERF-LC-KJ | 1.17 | 1.12 | 1.11 | 1.04 | 1.15 | 0.87 | 0.8 | 1.26 | 1.32 | 1.11 | 0.954 | 0.887 | 0.919 | 1.04 | 0.958 | 0.966 | 0.661 | 0.932 | 0.948 | 0.996 |
| NCI-H596 | 1.06 | 0.984 | 0.998 | 1.01 | 1.04 | 0.99 | 0.945 | 0.976 | 0.949 | 1.1 | 1.12 | 0.914 | 0.95 | 1.02 | 1.03 | 1.15 | 0.96 | 1.1 | 1.01 | 1.09 |
| H3255 | 0.912 | 0.789 | 0.624 | 0.641 | 0.317 | 0.632 | 0.512 | 0.406 | 0.567 | 0.338 | 1.16 | 0.873 | 0.844 | 0.775 | 0.514 | 1.07 | 0.8 | 0.831 | 0.798 | 0.506 |
| NCI-H2085 | 0.991 | 0.99 | 0.969 | 0.871 | 0.543 | 1.1 | 1.04 | 0.897 | 0.93 | 0.776 | 1.01 | 0.785 | 0.77 | 0.662 | 0.571 | 1.06 | 0.912 | 0.942 | 0.76 | 0.473 |
| A-427 | 0.933 | 0.877 | 0.827 | 0.832 | 0.546 | 0.978 | 0.941 | 0.869 | 0.874 | 0.656 | 1.15 | 1.08 | 1.01 | 0.942 | 0.806 | 0.778 | 0.653 | 0.472 | 0.469 | 0.43 |
| NCI-H647 | 0.963 | 0.814 | 0.696 | 0.851 | 0.472 | 1.33 | 0.92 | 0.759 | 0.93 | 0.738 | 1.2 | 1.01 | 0.89 | 0.941 | 0.712 | 0.645 | 0.3 | 0.368 | 0.326 | 0.197 |
| NCI-H838 | 0.725 | 0.8 | 0.67 | 0.694 | 0.275 | 1.16 | 1.03 | 0.859 | 0.938 | 0.423 | 1.07 | 0.96 | 0.708 | 0.82 | 0.494 | 0.85 | 0.891 | 0.815 | 0.862 | 0.693 |
| NCI-H2087 | 0.803 | 0.81 | 0.702 | 0.485 | 0.372 | 1.04 | 0.843 | 0.802 | 0.685 | 0.495 | 0.932 | 0.837 | 0.826 | 0.503 | 0.541 | 1.18 | 1.16 | 1.03 | 0.902 | 0.641 |
